Measurements reported in US20220389003A1, “4-SUBSTITUTED INDOLE AND INDAZOLE SULFONAMIDO DERIVATIVES AS PARG INHIBITORS” (IDEAYA BIOSCIENCES, INC., priority 2019, published 2022).

Key:
PARG [1] = molecular target: T1, PARG (Homo sapiens, UniProt Q86W56); test: Inhibition of PARG enzymatic assay (TR-FRET enzymatic IC50 assay); type: biochemical; set-up: purchased Peak Proteins; conditions: hPARG 250 pM, biotinylated-PARylated PARP substrate 30 nM
Method: PARG enzyme was incubated with compound or vehicle (DMSO) and the biotinylated-PARylated PARP substrate in a microtiter plate. After adding detection antibody and streptavidin-europium, and then incubating, the plate was read for fluorescence intensity. The low control (DMSO) with low fluorescence intensity represents no inhibition of enzymatic reaction while the high control (no enzyme) with high fluorescence intensity represents full inhibition of enzymatic reaction.
• PARG • hPARG: 250 pM, His-tagged, Peak Proteins, 0.96 mg/mL (8.58 μM) • Substrate: 30 nM • Reaction time: 70 minutes • Substrate: hPARP1, His- and TEV-tagged, Peak Proteins, 14 μM • Detection Antibody: anti-His monoclonal antibody-ULight, Perkin Elmer catalog #TRF0105-M • Streptavidin-Europium: Perkin Elmer catalog #AD0062 • Assay buffer: 50 mM Tris-HCl pH 7.4, 50 mM KCl, 3 mM EDTA, 0.4 mM EGTA, 1 mM DTT, 0.01% Tween 20, 0.01% BSA • Temperature: 23° C. • Total volume: 20 μL
• 0% inhibition control: DMSO • 100% inhibition control: No enzyme
• 1. Transfer 5 μL of 3× final concentration of test compounds or DMSO to the appropriate wells of a microtiter plate. • 2. Centrifuge the plate at 1000 rpm for 1 minute. • 3. Transfer 5 μL of 3× final concentration of enzyme in assay buffer or assay buffer alone to the appropriate wells. • 4. Centrifuge the plate at 1000 rpm for 1 minute. • 5. Incubate the plate at room temperature for 1 hour. • 6. Transfer 5 μL of 3× substrate in assay buffer to all the test wells. • 7. Centrifuge the plate at 1000 rpm for 1 minute. • 8. Incubate the plate at room temperature for 10 minutes. • 9. Transfer 5 μL of 3× mixture of detection antibody and streptavidin-europium in assay buffer to all the test wells. • 10. Centrifuge the plate at 1000 rpm for 1 minute. • 11. Incubate the plate at room temperature for 1 hour. • 12. Read the plate on a plate reader (e.g., Infinite M1000).

PARG [2] = molecular target: T1, PARG; test: Inhibition of PARG cellular assay (PAR foci in HeLa cells after MMS); type: cell-based; set-up: endogenous in cells; host or cells: HeLa; conditions: compound 1 h then MMS 1 h
Method: The ability of the compounds disclosed herein to inhibit PARG was determined as described below. Briefly, after treating HeLa cells with the compounds of the disclosure for 1 h, followed by treatment with DNA alkylating agent methylmethanesulfonate (MMS) for an additional 1 h, the cells were fixed in 3.7% formaldehyde. The cells were permeabilized in 0.5% Triton-X100, blocked in 5% goat serum, and incubated with mouse monoclonal antibody against poly (ADP) ribose (PAR) polymer overnight at 4° C. The cells were washed and incubated with an Alexafluor 488-linked secondary antibody together with a nuclear stain (Hoechst 33342) for an hour at room temperature. After washing, images of the cells were captured and analyzed on a high content imaging microscope and software. Two measurement of PAR chain were quantified with the mean intensity over background of the nuclear foci (fluorescent signal at 488 nm range 0.3-2.0 μm foci) quantified as PAR foci (PAR Foci IC50). The cells with a PAR foci signal >1.3 was considered as positive (PAR % positive IC50), and the percentage positive cells are quantified.

T1 sequence (Q86W56 whole entry): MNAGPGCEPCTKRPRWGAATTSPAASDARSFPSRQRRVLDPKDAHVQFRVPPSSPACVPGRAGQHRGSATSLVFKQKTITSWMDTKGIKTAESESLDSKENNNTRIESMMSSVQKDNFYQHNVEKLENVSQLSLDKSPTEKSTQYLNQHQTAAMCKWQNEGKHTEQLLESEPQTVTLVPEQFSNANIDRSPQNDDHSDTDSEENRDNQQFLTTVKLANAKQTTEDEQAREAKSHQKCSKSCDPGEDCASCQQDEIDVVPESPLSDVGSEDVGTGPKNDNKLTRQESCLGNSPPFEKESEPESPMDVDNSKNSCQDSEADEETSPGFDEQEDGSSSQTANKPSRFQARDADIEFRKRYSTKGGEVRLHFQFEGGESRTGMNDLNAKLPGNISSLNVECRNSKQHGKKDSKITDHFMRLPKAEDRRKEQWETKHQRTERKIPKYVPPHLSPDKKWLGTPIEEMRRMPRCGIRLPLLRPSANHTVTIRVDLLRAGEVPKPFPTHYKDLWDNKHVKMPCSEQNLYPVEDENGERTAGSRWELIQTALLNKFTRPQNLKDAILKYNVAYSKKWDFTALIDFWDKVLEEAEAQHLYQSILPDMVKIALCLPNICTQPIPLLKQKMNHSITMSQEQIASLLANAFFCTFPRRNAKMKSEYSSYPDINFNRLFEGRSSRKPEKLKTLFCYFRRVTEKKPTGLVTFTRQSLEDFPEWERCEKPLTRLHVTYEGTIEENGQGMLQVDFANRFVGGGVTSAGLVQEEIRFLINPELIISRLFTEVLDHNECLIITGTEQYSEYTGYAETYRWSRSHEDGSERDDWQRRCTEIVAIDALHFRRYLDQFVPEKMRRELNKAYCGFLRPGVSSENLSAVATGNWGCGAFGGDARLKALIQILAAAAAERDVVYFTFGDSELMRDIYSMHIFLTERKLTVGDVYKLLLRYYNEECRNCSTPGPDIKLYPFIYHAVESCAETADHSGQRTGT

With `N#CC1(NS(=O)(=O)c2cc(-c3c[nH]cn3)c3cnn(-c4nnc(C(F)F)s4)c3c2)CC1` [Example 9, 1-[({1-[5-(difluoromethyl)(1,3,4-thiadiazol-2-yl)]-4-imidazol-4-yl-1H-indazol-6-yl}sulfonyl)amino]cyclopropanecarbonitrile] the IC50 (PARG [1]) was 0.3 to 1 µM and the IC50 (PARG [2]) was 1 to 10 µM.
`N#CC1(NS(=O)(=O)c2cc(-c3ccnnc3)c3cnn(-c4nnc(C(F)F)s4)c3c2)CC1` [Example 10, 1-[({1-[5-(difluoromethyl)(1,3,4-thiadiazol-2-yl)]-4-pyridazin-4-yl-1H-indazol-6-yl}sulfonyl)amino]cyclopropanecarbonitrile] gave an IC50 (PARG [1]) of 0.1 to 0.3 µM and an IC50 (PARG [2]) of 1 to 10 µM.
With `N#CC1(NS(=O)(=O)c2cc(-c3cccnn3)c3cnn(-c4nnc(C(F)F)s4)c3c2)CC1` [Example 11, 1-[({1-[5-(difluoromethyl)(1,3,4-thiadiazol-2-yl)]-4-pyridazin-3-yl-1H-indazol-6-yl}sulfonyl)amino]cyclopropanecarbonitrile] the IC50 (PARG [1]) was 0.1 to 0.3 µM and the IC50 (PARG [2]) was 1 to 10 µM.
In the case of `Cn1cnc(-c2cc(S(=O)(=O)NC3(C#N)CC3)cc3c2cnn3-c2nnc(C(F)F)s2)c1` [Example 12, 1-[({1-[5-(difluoromethyl)(1,3,4-thiadiazol-2-yl)]-4-(1-methylimidazol-4-yl)-1H-indazol-6-yl}sulfonyl)amino]cyclopropanecarbonitrile], the IC50 (PARG [1]) is reported as 0.3 to 1 µM and the IC50 (PARG [2]) is reported as 0.3 to 1 µM.
For `N#CC1(NS(=O)(=O)c2cc(-c3cscn3)c3cnn(-c4nnc(C(F)F)s4)c3c2)CC1` [Example 13, 1-[({1-[5-(difluoromethyl)(1,3,4-thiadiazol-2-yl)]-4-(1,3-thiazol-4-yl)-1H-indazol-6-yl}sulfonyl)amino]cyclopropanecarbonitrile], the IC50 (PARG [1]) was 0.3 to 1 µM and the IC50 (PARG [2]) was 0.3 to 1 µM.
Work on `N#CC1(NS(=O)(=O)c2cc(-c3ccncc3)c3cnn(-c4nnc(C(F)F)s4)c3c2)CC1` [Example 16, 1-[({1-[5-(difluoromethyl)(1,3,4-thiadiazol-2-yl)]-4-(4-pyridyl)-1H-indazol-6-yl}sulfonyl)amino]cyclopropanecarbonitrile] yielded an IC50 (PARG [1]) of 0.1 to 0.3 µM and an IC50 (PARG [2]) of 1 to 10 µM.
With `N#CC1(NS(=O)(=O)c2cc(-c3cccnc3)c3cnn(-c4nnc(C(F)F)s4)c3c2)CC1` [Example 17, 1-[({1-[5-(difluoromethyl)(1,3,4-thiadiazol-2-yl)]-4-(3-pyridyl)-1H-indazol-6-yl}sulfonyl)amino]cyclopropanecarbonitrile] the IC50 (PARG [1]) was 0.3 to 1 µM and the IC50 (PARG [2]) was 1 to 10 µM.
`N#CC1(NS(=O)(=O)c2cc(-c3cnccn3)c3cnn(-c4nnc(C(F)F)s4)c3c2)CC1` [Example 18, 1-[({1-[5-(difluoromethyl)(1,3,4-thiadiazol-2-yl)]-4-pyrazin-2-yl-1H-indazol-6-yl}sulfonyl)amino]cyclopropanecarbonitrile] was tested, and the IC50 (PARG [1]) was 0.1 to 0.3 µM and the IC50 (PARG [2]) was 1 to 10 µM.
Work on `COc1cc(-c2cc(S(=O)(=O)NC3(C(N)=O)CC3)cc3c2cnn3-c2nnc(C(F)F)s2)ncn1` [Example 19, 1-[({1-[5-(difluoromethyl)(1,3,4-thiadiazol-2-yl)]-4-(6-methoxypyrimidin-4-yl)-1H-indazol-6-yl}sulfonyl)amino]cyclopropanecarboxamide] yielded an IC50 (PARG [1]) of 0.3 to 1 µM and an IC50 (PARG [2]) of 1 to 10 µM.
`COc1nccc(-c2cc(S(=O)(=O)NC3(C(N)=O)CC3)cc3c2cnn3-c2nnc(C(F)F)s2)n1` [Example 20, 1-[({1-[5-(difluoromethyl)(1,3,4-thiadiazol-2-yl)]-4-(2-methoxypyrimidin-4-yl)-1H-indazol-6-yl}sulfonyl)amino]cyclopropanecarboxamide] showed an IC50 (PARG [1]) of 0.3 to 1 µM and an IC50 (PARG [2]) of 1 to 10 µM.
In the case of `COc1cc(-c2cc(S(=O)(=O)NC3(C#N)CC3)cc3c2cnn3-c2nnc(C(F)F)s2)ncn1` [Example 22, 1-[({1-[5-(difluoromethyl)(1,3,4-thiadiazol-2-yl)]-4-(6-methoxypyrimidin-4-yl)-1H-indazol-6-yl}sulfonyl)amino]cyclopropanecarbonitrile], the IC50 (PARG [2]) is reported as 0.3 to 1 µM.
Molecule `N#CC1(NS(=O)(=O)c2cc(N3CCC4(CCOC4)CC3)c3cnn(-c4nnc(C(F)F)s4)c3c2)CC1` [Example 29, 1-[({1-[5-(difluoromethyl)(1,3,4-thiadiazol-2-yl)]-4-(2-oxa-8-azaspiro[4.5]dec-8-yl)-1H-indazol-6-yl}sulfonyl)amino]cyclopropanecarbonitrile] has an IC50 (PARG [1]) of 0.1 to 0.3 µM and an IC50 (PARG [2]) of 0.3 to 1 µM.
`N#CC1(NS(=O)(=O)c2cc(N3CCC4(CCOCC4)CC3)c3cnn(-c4nnc(C(F)F)s4)c3c2)CC1` [Example 30, 1-[({1-[5-(difluoromethyl)(1,3,4-thiadiazol-2-yl)]-4-(9-oxa-3-azaspiro[5.5]undec-3-yl)-1H-indazol-6-yl}sulfonyl)amino]cyclopropanecarbonitrile] showed an IC50 (PARG [1]) of 0.3 to 1 µM and an IC50 (PARG [2]) of 1 to 10 µM.
With `N#CC1(NS(=O)(=O)c2cc(N3CCCOCC3)c3cnn(-c4nnc(C(F)F)s4)c3c2)CC1` [Example 42, 1-[({1-[5-(difluoromethyl)(1,3,4-thiadiazol-2-yl)]-4-(1,4-oxazaperhydroepin-4-yl)-1H-indazol-6-yl}sulfonyl)amino]cyclopropanecarbonitrile] the IC50 (PARG [1]) was 1 to 10 µM.
`CN(C)C(=O)C1CN(c2cc(S(=O)(=O)NC3(C#N)CC3)cc3c2cnn3-c2nnc(C(F)F)s2)C1` [Example 55, [1-(1-[5-(difluoromethyl)(1,3,4-thiadiazol-2-yl)]-6-{[(cyanocyclopropyl)amino]sulfonyl}(1H-indazol-4-yl))azetidin-3-yl]-N,N-dimethylcarboxamide] was tested, and the IC50 (PARG [1]) was 0.3 to 1 µM.
`N#CC1(NS(=O)(=O)c2cc(N3CCN4C(=O)OC[C@@H]4C3)c3cnn(-c4nnc(C(F)F)s4)c3c2)CC1` [Example 62, 1-[({4-((1S)-7-oxo-8-oxa-3,6-diazabicyclo[4.3.0]non-3-yl)-1-[5-(difluoromethyl) (1,3,4-thiadiazol-2-yl)]-1H-indazol-6-yl}sulfonyl)amino]cyclopropanecarbonitrile] was tested, and the IC50 (PARG [1]) was ≤ 0.1 µM.
`N#CC1(NS(=O)(=O)c2cc(N3CCCC4(COC4)C3)c3cnn(-c4nnc(C(F)F)s4)c3c2)CC1` [Example 65, 1-[({1-[5-(difluoromethyl)(1,3,4-thiadiazol-2-yl)]-4-(2-oxa-6-azaspiro[3.5]non-6-yl)-1H-indazol-6-yl}sulfonyl)amino]cyclopropanecarbonitrile] showed an IC50 (PARG [1]) of 0.3 to 1 µM.
`N#CC1(NS(=O)(=O)c2cc(N3CC4COCC(C3)N4)c3cnn(-c4nnc(C(F)F)s4)c3c2)CC1` [Example 70, 1-[({1-[5-(difluoromethyl)(1,3,4-thiadiazol-2-yl)]-4-(7-oxa-3,9-diazabicyclo-[3.3.1]non-3-yl)-1H-indazol-6-yl}sulfonyl)amino]cyclopropanecarbonitrile] showed an IC50 (PARG [1]) of 0.1 to 0.3 µM.
In the case of `CN1Cc2cn(-c3cc(S(=O)(=O)NC4(C#N)CC4)cc4c3cnn4-c3nnc(C(F)F)s3)nc2C1` [Example 73, 1-[({1-[5-(difluoromethyl)(1,3,4-thiadiazol-2-yl)]-4-(5-methyl(3-pyrrolino[3,4-c]pyrazol-2-yl))-1H-indazol-6-yl}sulfonyl)amino]cyclopropanecarbonitrile], the IC50 (PARG [1]) is reported as 0.1 to 0.3 µM and the IC50 (PARG [2]) is reported as 1 to 10 µM.
With `CN(C)C(=O)N1CCCN(c2cc(S(=O)(=O)NC3(C#N)CC3)cc3c2cnn3-c2nnc(C(F)F)s2)CC1` [Example 78, [4-(1-[5-(difluoromethyl)(1,3,4-thiadiazol-2-yl)]-6-{[(cyanocyclopropyl)amino]-sulfonyl}(1H-indazol-4-yl))(1,4-diazaperhydroepinyl)]-N,N-dimethylcarboxamide] the IC50 (PARG [1]) was 0.1 to 0.3 µM.
Work on `N#CC1(NS(=O)(=O)c2cc(N3CCCC3)c3cnn(-c4nnc(C(F)F)s4)c3c2)CC1` [Example 101, 1-[({1-[5-(difluoromethyl)(1,3,4-thiadiazol-2-yl)]-4-pyrrolidinyl-1H-indazol-6-yl}sulfonyl)amino]cyclopropanecarbonitrile] yielded an IC50 (PARG [1]) of 1 to 10 µM and an IC50 (PARG [2]) of 1 to 10 µM.
`CN1CCN(c2cc(S(=O)(=O)NC3(C#N)CC3)cc3c2cnn3-c2nnc(C(F)F)s2)CC1` [Example 102, 1-[({1-[5-(difluoromethyl)(1,3,4-thiadiazol-2-yl)]-4-(4-methylpiperazinyl)-1H-indazol-6-yl}sulfonyl)amino]cyclopropanecarbonitrile] showed an IC50 (PARG [1]) of 0.1 to 0.3 µM and an IC50 (PARG [2]) of 0.3 to 1 µM.
